Here are results for one compound from patent US9879059B2, “Tailoring multivalent interactions of biopolymers with a polyproline scaffold” (Agency for Science, Technology and Research, priority 2013, dated 2018).

Each structure is given as a SMILES string.

The target of experiment [1] is NGF (Homo sapiens, UniProt P01138). Particulars: two-state kinetic model, 25° C., NGF 11-185 nM. As for the experimental part:
Affinity measurements were performed using a Biacore T100 system (GE Heathcare). The CM5 sensor chip was used for all measurements. At first, the instrument was primed with HBS-EP+ (GE Heathcare) buffer. Then, 700RU of streptavidin was immobilized on all flow cells. A 1:1 mixture of 0.4 M EDC and 0.1 M NHS was used to activate the flow cells, and 0.008 mg/mL streptavidin solution reconstituted in Acetate 5.0 buffer (GE Healthcare) was injected. Blocking of the remaining activated groups was done with a 1 M solution of ethanolamine (pH 8.5). Flow cell 1 (or 3) was used as a reference to subtract nonspecific binding, drift, and the bulk refractive index, while flow cell 2 (or 4) was further immobilized with glycol-peptide samples of varying structures. Biotinylated glycopeptides (20 nM) were dissolved in HBS-EP+ buffer and were injected to flow cell 2 (or 4) at 30 μL/min until the baseline response increased by 104 or 127 RU. The instrument was then primed using running buffer (HBS-EP+). NGF was dissolved in HBS-EP+ buffer to produce a 185 nM stock solution, which was serially diluted to produce a concentration series down to 11 nM. […] Flow cells were regenerated by 2.5 M MgCl2 at 30 μL/min for 30 seconds after injection of each protein solutions.
Surface plasmon resonance (SPR) technology was further employed to facilitate quantitative, real-time kinetic analysis of glycopeptide-NGF interaction. Streptavidin was coated on a carboxydextran CM5 sensor chip, using EDC/NHS coupling chemistry, at a relatively low density (≈700 RU) to prevent nonspecific interactions with NGF. Biotinylated glycopeptides were then immobilized on streptavidin-coated surface at normalized levels by molecular weights,^[12] […] Kinetics were monitored at 25° C. by injecting various concentrations of NGF (11-185 nM) over the surface for 240 s at 50 μL·min^−1 and recording the dissociation for 800 s before the surface was regenerated with 2.5 M solution of MgCl2. […] Further kinetic analysis was conducted using a two-state binding model for comprehensive understanding of this binding event.

In experiment [2] the test system is PC12 cells. Particulars: NGF 4 ng/ml, glycopeptide 10 μM, 72 hr, compared to NGF-only control. As for the experimental part: Rat pheochromocytoma (PC12) cells were maintained in T75 tissue culture flask in complete RPMI 1640 growth medium containing 10% heat-inactivated horse serum (HI-HS), 5% fetal bovine serum (FBS) and 1% penicillin/streptomycin. Stock cultures from liquid nitrogen were grown at 37° C. with 5% CO2 in a humidified chamber for 72 hr before experiments.
13 mm glass coverslips were submerged in 65% nitric acid for at least three days. The coverslips were washed with distilled water, 70% ethanol and 100% ethanol 3× each for 30 minutes with gentle rocking. The coverslips were dried in the cell culture hood overnight with UV sterilization. For coating, 60 μl of laminin solution (25 μg/ml in sterile PBS) was added to each coverslip, followed by 2 hr incubation at 37° C. The coverslips were rinsed 3× with PBS and dried in the hood before use.
PC12 cells were seeded on laminin-coated coverslips at a density of 100 cells/mm^2 in RPMI 1640 differentiation medium containing 1% HI-HS. Cells were allowed to attach to the surface for 1 hr at 37° C. The coverslips were transferred to 24-well plates and the cells were incubated with fresh differentiation medium for 1 hr. Glycopeptides were incubated with NGF in differentiation medium for 1 hr at room temperature before adding to the cells together. At the end of culture period, the cells were fixed with 4% formaldehyde solution for 15 minutes at room temperature and rinsed 2× with PBS. All experiments were repeated three times and done in duplicate each time. For each treatment, 400-500 randomly selected single cells were counted. The percentage of neurite-bearing cells was determined by counting the number of cells with neurite length at least one cell body long.

For experiment [3], the target named is nerve growth factor (NGF) (Homo sapiens, UniProt P01138). Description: ELISA of NGF binding to immobilized biotinylated glycopeptides. The note with it: glycopeptide immobilized on streptavidin plate, NGF 0-60 nM, result in words.
nerve growth factor (NGF), sequence (P01138 122-241, species assumed): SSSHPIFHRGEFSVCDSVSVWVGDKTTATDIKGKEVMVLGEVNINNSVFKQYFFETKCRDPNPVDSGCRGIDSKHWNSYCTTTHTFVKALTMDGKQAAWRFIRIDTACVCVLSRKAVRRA
Procedure: The new plate was rinsed three times with PBS containing 0.05% Tween 20 and one time with PBS before the experiment. 100 μL of biotinylated glycopeptide solutions (0.5 μM) were added to required wells in the Pierce Streptavidin Coated High Binding Capacity plates (#15501), and incubated overnight at room temperature. After immobilization of glycopeptides, the plates were rinsed three times with PBS containing 0.05% Tween 20 and one time with PBS. The surface was then blocked with 125 μL of 3% BSA in PBS for 1 hr, followed by rinsing three times with PBS containing 0.05% Tween 20 and one time with PBS. 100 μL of varying concentrations (0 nM, 10 nM, 20 nM, 30 nM, 40 nM, 50 nM and 60 nM) of NGF in PBS containing 1% BSA was added to the wells and incubated for 2 hrs at 37° C. […]
The wells were then incubated with anti-NGF labeled with HRP in PBS containing 1% BSA. Absorbance signal was then developed with 100 μL of TMB Substrate from Thermo Scientific Pierce (#0034021) for 20 to 30 min before quenching with 100 μL of 2M H2SO4. Absorbance at 450 nm was then measured.
To evaluate the ability of the glycopeptides to interact with protein receptors, the binding affinity of each agent with nerve growth factor (NGF), which is known to bind CS-E sulfation motif selectively,^[9] was examined by ELISA. […] The amount of glycopeptide-bound NGF was measured by HRP-conjugated polyclonal NGF antibody.

NGF, sequence (P01138 122-241, species assumed): as above

Regarding `COC(=O)[C@@H]1C[C@@H](n2cc(CO[C@@H]3O[C@H](COS(=O)(=O)O)[C@H](OS(=O)(=O)O)[C@H](O[C@@H]4O[C@H](C(=O)O)[C@@H](O)[C@H](O)[C@H]4O)[C@H]3NC(C)=O)nn2)CN1C(=O)[C@@H]1C[C@@H](n2cc(CO[C@@H]3O[C@H](COS(=O)(=O)O)[C@H](OS(=O)(=O)O)[C@H](O[C@@H]4O[C@H](C(=O)O)[C@@H](O)[C@H](O)[C@H]4O)[C@H]3NC(C)=O)nn2)CN1C(=O)[C@@H]1C[C@@H](n2cc(CO[C@@H]3O[C@H](COS(=O)(=O)O)[C@H](OS(=O)(=O)O)[C@H](O[C@@H]4O[C@H](C(=O)O)[C@@H](O)[C@H](O)[C@H]4O)[C@H]3NC(C)=O)nn2)CN1C(=O)[C@@H]1C[C@@H](n2cc(CO[C@@H]3O[C@H](COS(=O)(=O)O)[C@H](OS(=O)(=O)O)[C@H](O[C@@H]4O[C@H](C(=O)O)[C@@H](O)[C@H](O)[C@H]4O)[C@H]3NC(C)=O)nn2)CN1C(=O)[C@@H]1C[C@@H](n2cc(CO[C@@H]3O[C@H](COS(=O)(=O)O)[C@H](OS(=O)(=O)O)[C@H](O[C@@H]4O[C@H](C(=O)O)[C@@H](O)[C@H](O)[C@H]4O)[C@H]3NC(C)=O)nn2)CN1C(=O)[C@@H]1C[C@@H](n2cc(CO[C@@H]3O[C@H](COS(=O)(=O)O)[C@H](OS(=O)(=O)O)[C@H](O[C@@H]4O[C@H](C(=O)O)[C@@H](O)[C@H](O)[C@H]4O)[C@H]3NC(C)=O)nn2)CN1C(=O)[C@@H]1C[C@@H](n2cc(CO[C@@H]3O[C@H](COS(=O)(=O)O)[C@H](OS(=O)(=O)O)[C@H](O[C@@H]4O[C@H](C(=O)O)[C@@H](O)[C@H](O)[C@H]4O)[C@H]3NC(C)=O)nn2)CN1C(=O)[C@@H]1C[C@@H](n2cc(CO[C@@H]3O[C@H](COS(=O)(=O)O)[C@H](OS(=O)(=O)O)[C@H](O[C@@H]4O[C@H](C(=O)O)[C@@H](O)[C@H](O)[C@H]4O)[C@H]3NC(C)=O)nn2)CN1C(=O)[C@@H]1C[C@@H](n2cc(CO[C@@H]3O[C@H](COS(=O)(=O)O)[C@H](OS(=O)(=O)O)[C@H](O[C@@H]4O[C@H](C(=O)O)[C@@H](O)[C@H](O)[C@H]4O)[C@H]3NC(C)=O)nn2)CN1C(=O)[C@@H]1C[C@@H](n2cc(CO[C@@H]3O[C@H](COS(=O)(=O)O)[C@H](OS(=O)(=O)O)[C@H](O[C@@H]4O[C@H](C(=O)O)[C@@H](O)[C@H](O)[C@H]4O)[C@H]3NC(C)=O)nn2)CN1C(=O)[C@@H]1C[C@@H](n2cc(CO[C@@H]3O[C@H](COS(=O)(=O)O)[C@H](OS(=O)(=O)O)[C@H](O[C@@H]4O[C@H](C(=O)O)[C@@H](O)[C@H](O)[C@H]4O)[C@H]3NC(C)=O)nn2)CN1C(=O)[C@@H]1C[C@@H](n2cc(CO[C@@H]3O[C@H](COS(=O)(=O)O)[C@H](OS(=O)(=O)O)[C@H](O[C@@H]4O[C@H](C(=O)O)[C@@H](O)[C@H](O)[C@H]4O)[C@H]3NC(C)=O)nn2)CN1C(=O)CCOCCOCCOCCOCCOCCOCCOCCOCCOCCOCCOCCOCCNC(=O)CCCC[C@@H]1SC[C@@H]2NC(=O)N[C@@H]21` [Glycopeptide 1], in experiment [1], the ka2 is 3.62 (±0.04) × 10^−3 M^−1s^−1, the kd1 is 3.22 (±0.07) × 10^−2 s^−1 and the kd2 is given as 6.43 (±0.13) × 10^−4 s^−1. The ka1 in experiment [1] (standard errors in parentheses) is 1.95 (±0.39) × 10^3 M^−1s^−1. The “effect on NGF-mediated neurite outgrowth” value in experiment [2] was “no effect”. The “binding to NGF (ELISA)” value in experiment [3] is given as “moderate binding affinity”.
